Test results reported in the supplement of paper PMC10307832.

How the values were obtained:
Assay in all cases: relative viability (nuclei count vs DMSO), 5 days (fraction); higher = more cells survive
PC-14 = tested on: PC-14
Outline: (§1)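 Lung cancer cell lines were seeded in 1536-well plates and dosed by pin tool the next day, with either a single drug or a fixed anchor-drug dose combined with five library-drug doses (not always all listed) spaced in √10 steps. Five days later, one step fixed the cells and stained their nuclei (final 0.05% Triton X-100, 1% formaldehyde, 1 ug/ml Hoechst), and nuclei were counted on 4× images. Relative viability is the nuclei count in treated wells divided by the count in vehicle wells, and each value is the median of duplicate plates.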

H3255 = tested on: H3255
Outline: as §1

SW 1573 = tested on: SW 1573
Outline: as §1

NCI-H1915 = tested on: NCI-H1915
Outline: as §1

BEN = tested on: BEN
Outline: as §1

NCI-H358 = tested on: NCI-H358
Outline: as §1

NCI-H661 = tested on: NCI-H661
Outline: as §1

NCI-H1993 = tested on: NCI-H1993
Outline: as §1

NCI-H727 = tested on: NCI-H727
Outline: as §1

NCI-H2347 = tested on: NCI-H2347
Outline: as §1

HOP-62 = tested on: HOP-62
Outline: as §1

NCI-H2023 = tested on: NCI-H2023
Outline: as §1

NCI-H2342 = tested on: NCI-H2342
Outline: as §1

NCI-H2085 = tested on: NCI-H2085
Outline: as §1

NCI-H2126 = tested on: NCI-H2126
Outline: as §1

EMC-BAC-2 = tested on: EMC-BAC-2
Outline: as §1

NCI-H647 = tested on: NCI-H647
Outline: as §1

NCI-H1563 = tested on: NCI-H1563
Outline: as §1

LXF-289 = tested on: LXF-289
Outline: as §1

NCI-H2009 = tested on: NCI-H2009
Outline: as §1

SK-LU-1 = tested on: SK-LU-1
Outline: as §1

NCI-H322M = tested on: NCI-H322M
Outline: as §1

NCI-H1650 = tested on: NCI-H1650
Outline: as §1

LCLC-97TM1 = tested on: LCLC-97TM1
Outline: as §1

C[C@@H]1CN(CC(=O)Nc2ccc3c(c2)Cc2cccc(-c4cc(=O)cc(N5CCOCC5)o4)c2S3)C[C@H](C)O1 + CCNC(=O)c1noc(-c2cc(C(C)C)c(O)cc2O)c1-c1ccc(CN2CCOCC2)cc1 [Luminespib] (partner 0.01 µM)
relative viability (PC-14; first compound 0.04 µM): 0.142 | relative viability (PC-14; first compound 0.1265 µM): 0.122 | relative viability (PC-14; first compound 0.4 µM): 0.15 | relative viability (PC-14; first compound 4 µM): 0.144 | relative viability (H3255; first compound 0.04 µM): 0.952 | relative viability (H3255; first compound 0.1265 µM): 0.767 | relative viability (H3255; first compound 0.4 µM): 0.912 | relative viability (H3255; first compound 4 µM): 0.881 | relative viability (SW 1573; first compound 0.04 µM): 0.215 | relative viability (SW 1573; first compound 0.1265 µM): 0.386 | relative viability (SW 1573; first compound 0.4 µM): 0.207 | relative viability (SW 1573; first compound 4 µM): 0.366 | relative viability (NCI-H1915; first compound 0.04 µM): 0.761 | relative viability (NCI-H1915; first compound 0.1265 µM): 0.686 | relative viability (NCI-H1915; first compound 0.4 µM): 0.756 | relative viability (NCI-H1915; first compound 4 µM): 0.68 | relative viability (BEN; first compound 0.04 µM): 0.264 | relative viability (BEN; first compound 0.1265 µM): 0.252 | relative viability (BEN; first compound 0.4 µM): 0.463 | relative viability (BEN; first compound 4 µM): 0.322 | relative viability (NCI-H358; first compound 0.04 µM): 0.429 | relative viability (NCI-H358; first compound 0.1265 µM): 0.308 | relative viability (NCI-H358; first compound 0.4 µM): 0.399 | relative viability (NCI-H358; first compound 4 µM): 0.233 | relative viability (NCI-H661; first compound 0.04 µM): 0.964 | relative viability (NCI-H661; first compound 0.1265 µM): 0.938 | relative viability (NCI-H661; first compound 0.4 µM): 0.97 | relative viability (NCI-H661; first compound 4 µM): 0.813 | relative viability (NCI-H1993; first compound 0.04 µM): 0.872 | relative viability (NCI-H1993; first compound 0.1265 µM): 0.913 | relative viability (NCI-H1993; first compound 0.4 µM): 0.621 | relative viability (NCI-H1993; first compound 4 µM): 0.762 | relative viability (NCI-H727; first compound 0.04 µM): 0.362 | relative viability (NCI-H727; first compound 0.1265 µM): 0.603 | relative viability (NCI-H727; first compound 0.4 µM): 0.37 | relative viability (NCI-H727; first compound 4 µM): 0.388 | relative viability (NCI-H2347; first compound 0.04 µM): 0.926 | relative viability (NCI-H2347; first compound 0.1265 µM): 0.475 | relative viability (NCI-H2347; first compound 0.4 µM): 0.438 | relative viability (NCI-H2347; first compound 4 µM): 0.534 | relative viability (HOP-62; first compound 0.04 µM): 0.917 | relative viability (HOP-62; first compound 0.1265 µM): 0.898 | relative viability (HOP-62; first compound 0.4 µM): 0.92 | relative viability (HOP-62; first compound 4 µM): 0.907 | relative viability (NCI-H2023; first compound 0.04 µM): 0.691 | relative viability (NCI-H2023; first compound 0.1265 µM): 0.75 | relative viability (NCI-H2023; first compound 0.4 µM): 0.543 | relative viability (NCI-H2023; first compound 4 µM): 0.37 | relative viability (NCI-H2342; first compound 0.04 µM): 0.706 | relative viability (NCI-H2342; first compound 0.1265 µM): 0.641 | relative viability (NCI-H2342; first compound 0.4 µM): 0.722 | relative viability (NCI-H2342; first compound 4 µM): 0.662 | relative viability (NCI-H2085; first compound 0.04 µM): 0.477 | relative viability (NCI-H2085; first compound 0.1265 µM): 0.509 | relative viability (NCI-H2085; first compound 0.4 µM): 0.404 | relative viability (NCI-H2085; first compound 4 µM): 0.397 | relative viability (NCI-H2126; first compound 0.04 µM): 1.04 | relative viability (NCI-H2126; first compound 0.1265 µM): 0.881 | relative viability (NCI-H2126; first compound 0.4 µM): 0.863 | relative viability (NCI-H2126; first compound 4 µM): 0.744 | relative viability (EMC-BAC-2; first compound 0.04 µM): 1.28 | relative viability (EMC-BAC-2; first compound 0.1265 µM): 1.17 | relative viability (EMC-BAC-2; first compound 0.4 µM): 1.08 | relative viability (EMC-BAC-2; first compound 4 µM): 1.19 | relative viability (NCI-H647; first compound 0.04 µM): 0.121 | relative viability (NCI-H647; first compound 0.1265 µM): 0.153 | relative viability (NCI-H647; first compound 0.4 µM): 0.152 | relative viability (NCI-H647; first compound 4 µM): 0.163 | relative viability (NCI-H1563; first compound 0.04 µM): 0.512 | relative viability (NCI-H1563; first compound 0.1265 µM): 0.514 | relative viability (NCI-H1563; first compound 0.4 µM): 0.477 | relative viability (NCI-H1563; first compound 4 µM): 0.514 | relative viability (LXF-289; first compound 0.04 µM): 0.657 | relative viability (LXF-289; first compound 0.1265 µM): 0.645 | relative viability (LXF-289; first compound 0.4 µM): 0.714 | relative viability (LXF-289; first compound 4 µM): 0.73 | relative viability (NCI-H2009; first compound 0.04 µM): 1.01 | relative viability (NCI-H2009; first compound 0.1265 µM): 0.995 | relative viability (NCI-H2009; first compound 0.4 µM): 0.983 | relative viability (NCI-H2009; first compound 4 µM): 0.804 | relative viability (SK-LU-1; first compound 0.04 µM): 0.222 | relative viability (SK-LU-1; first compound 0.1265 µM): 0.203 | relative viability (SK-LU-1; first compound 0.4 µM): 0.23 | relative viability (SK-LU-1; first compound 4 µM): 0.167 | relative viability (NCI-H322M; first compound 0.04 µM): 0.767 | relative viability (NCI-H322M; first compound 0.1265 µM): 0.765 | relative viability (NCI-H322M; first compound 0.4 µM): 0.839 | relative viability (NCI-H322M; first compound 4 µM): 0.841 | relative viability (NCI-H1650; first compound 0.04 µM): 0.212 | relative viability (NCI-H1650; first compound 0.1265 µM): 0.23 | relative viability (NCI-H1650; first compound 0.4 µM): 0.18 | relative viability (NCI-H1650; first compound 4 µM): 0.171 | relative viability (LCLC-97TM1; first compound 0.04 µM): 0.657 | relative viability (LCLC-97TM1; first compound 0.1265 µM): 0.828 | relative viability (LCLC-97TM1; first compound 0.4 µM): 0.749 | relative viability (LCLC-97TM1; first compound 4 µM): 0.813
